Laboratory results from patent publication US5500430A, “Amidic derivatives of glutamic, aspartic and 2-amino adipic acids, a process for preparing same, and anti-gastrin composition containing the derivatives” (Rotta Research Laboratorium S.p.A., priority 1990, dated 1996).

Tests used:
[1] = test system: gastric acid secretion induced by pentagastrin; assay: Antisecretive activity in anaesthetised rats (pentagastrin-stimulated gastric acid secretion); assay type: in vivo
Procedure: Antisecretive activity in anaesthetised rats
Antisecretive activity in rats was determined with the use of male animals each weighing about 200 g, anaesthetised with urethane. Gastric secretion was stimulated with pentagastrin. The method of K. S. Lai (Gut 5, (1964), 327-341) was used, slightly modified.
After tracheotomy, cannulae were inserted in the oesophagus and the duodenum. A tepid solution. (37° C.) of 0.25 mM NaOH was perfused and passed through the stomach by means of a peristaltic pump at a constant flow rate of 1 ml/minute. After stabilisation for 20 minutes, the stimulating agent, dissolved in a physiological solution, was perfused for 120 minutes at a dose of 30 mcg/Kg/h in a volume of 0.95 ml/hour. After perfusion for 60 minutes (the basal stimulation), the product under test was administered as an intravenous bolus (I.V.) and the perfusion of the stimulant continued for a further 60 minutes. Acid secretion was recorded continuously as a function of time.
(§1) The activity of the product was evaluated as the percentage reduction in the secreted acidity after the administration of the product compared with the base acidity measured during the first 60 minutes of collection during which only the pentagastrin was present.
Different doses of the antagonist compounds tested were administered so that an ID50, that is, the dose (in mg/Kg I.V.) capable of inhibiting the effect of pentagastrin by 50%, could be calculated.
The results thus obtained are illustrated in the following table (Table 1) in which the activities of the compounds are expressed as the ID50s under the stimulus of 30 mcg/Kg/h of pentagastrin.

[2] = Acute intravenous toxicity in rats (LD50); conditions: rat, in vivo
Source text: The activity of these compounds against gastric secretion is linked specifically to their antigastrin activity.

[3] = test system: gastric acid secretion induced by pentagastrin; assay: Antisecretive activity in conscious dogs carrying gastric fistulae; assay type: in vivo, dogs (beagles); conditions: for ED50: Canis lupus familiaris, iv, read-out: ID50 (the source's name)
Procedure: Antisecretive activity in conscious dogs
Male beagles weighing about 10 Kg were used and carried gastric fistulae at the level of the greater curvature, connected near the antral region, steel cannulae 5 cm long and 2 cm wide being inserted for collecting the gastric juices externally. After a period of about one month to recover from the operation, and after suitable conditioning, the animals were treated with pentagastrin at a dose of 3 mcg/Kg/h. The Stimulant, dissolved in a physiological solution, was perfused into the femoral vein for 180 minutes at a rate of 1.9 ml/h. After perfusion for 60 minutes (the basal stimulation) the product under test, dissolved in a physiological solution (1 ml/Kg), was administered in a bolus into the contra-lateral vein and, at the same time, the perfusion of the stimulant continued for a further 120 minutes. The acid secretion was recorded continuously as a function of time.
as §1, with “present, for each of the periods 0-60 and 60-120 minutes after the product had been administered in a bolus.” for “present.”
Different doses of the compounds (C-1 and C-5) tested were administered so that an ID50, that is the dose (in mg/Kg I.V.) capable of inhibiting the effect of the pentagastrin by 50% could be calculated.
The results obtained are given in the following table (Tab. 2) in which the % variations from the base (the mean ± standard deviations calculated on the values obtained from 4 animals) are given for the various doses administered under the stimulus of 3 mcg/Kg/h of pentagastrin, as well as the activities of the compounds, calculated as their ID50s, and the correlation coefficients of the regression lines calculated on the basis of the experimental data.

[4] = test system: guinea-pig gall bladder contracted with CCK-8; assay: Anticholecystokinin (anti-CCK) activity on guinea-pig gall bladders stimulated by CCK-8 in vitro; conditions: CCK-8 concentration 10 ng/ml, Krebs, 32° C.
Procedure: Anticholecystokinin (anti-cc, K) activity
In order to confirm the hypothesis that the molecular conformations of the compounds of the invention are suitable to provide them with antagonistic activity towards CCK as well as towards gastrin, the anticontracturant activities of some of the compounds of the invention were tested on guinea-pig gall bladders stimulated by CCK-8 in vitro.
A longitudinal strip of guinea-pig gall bladder was placed in a bath for isolated organs in the presence of Krebs at a temperature of 32° C. and oxygenated continuously with an oxygen-CO2 mixture (95-5 V/V).
The isometric contractions were detected by means of a force transducer and recorded.
The gall bladder was contracted with the use of a concentration of 10 ng/ml of CCK-8; the antagonistic activities of the compounds towards the contracturant effect of the CCK was determined with the use of different concentrations, thus determining the IC50 values, that is, the concentration of the compound in mcg/ml which can antagonise the contracturant effect of CCK by 50%.

fundic mucosa = assay: Fundic mucosa hyperplasia induced by pentagastrin in mice; assay type: in vivo; conditions: 21 days
Source text: (§2) Inhibitory effect on the rate of growth of tumorous colic cells induced by pentagastrin
(§3) Gastrin has a trophic effect on the digestive epithelium.
(§4) Upon the basis of this premise, it was wished to investigate whether the gastrin-specific antagonists of the invention could antagonise the growth of experimentally-induced gastrointestinal tumours.
(§5) Male mice weighing 20-25 g were inoculated subcutaneously in the interscapular region with a suspension of 8×10^4 tumour cells of a mouse colic adenocarcinoma.
(§6) After 21 days, the animals were killed and the fundic mucosa and the tumours were removed, weighed and extracted to determine the DNA.

[5] = test system: mouse colic adenocarcinoma; assay: Colic tumorous growth induced by pentagastrin in mice; assay type: in vivo; conditions: 21 days
Source text: as §2, §3, §4, §5, §6

[6] = pentagastrin + C-5 3 mg/Kg i.p. twice a day
[7] = pentagastrin + C-5 10 mg/Kg i.p. twice a day

For `O=C(O)CC[C@@H](NC(=O)c1cc(Cl)cc(Cl)c1)C(=O)N1CCC2(CCCC2)CC1` [Compound C5], the ED50 ([1]; Rattus norvegicus, iv, anaesthetised male rats, pentagastrin 30 mcg/Kg/h, I.V. bolus, IN with bound, read-out: Antagonistic activity (ID50) towards gastric acid secretion induced by pentagastrin) was 15 mg/kg, the “Antigastrin activity (in words)” value ([1]; anaesthetised rats, pentagastrin 30 mcg/Kg/h) was “particularly favourable” and the “Activity as peripheral pentagastrin inhibitor relative to compound C-30” value ([1]; rats, vs C-30) was “slightly more active”. The LD50 [2] was roughly 400 mg/kg, the selectivity ratio [2] was roughly 25 and the “Variation % (Mean ± SD) from base (0-60 min)” value (from here on “Variation % (Mean ± SD)”) ([3]; 5 mg/Kg I.V., period 60-120 min) was -36.0 ± 16.3%. The “Variation % (Mean ± SD)” value ([3]; 5 mg/Kg I.V., period 120-180 min) was -20.5 ± 13.1%, the “Variation % (Mean ± SD)” value ([3]; 10 mg/Kg I.V., period 60-120 min) was -59.5 ± 5.0% and the “Variation % (Mean ± SD)” value ([3]; 10 mg/Kg I.V., period 120-180 min) was -31.9 ± 1.3%. The “Variation % (Mean ± SD)” value ([3]; 30 mg/Kg I.V., period 60-120 min) was -67.8 ± 4.8%, the “Variation % (Mean ± SD)” value ([3]; 30 mg/Kg I.V., period 120-180 min) was -48.1 ± 1.7% and the ED50 ([3]; 1 h, conscious dogs, I.V. bolus, period 60-120 min (first hour after administration)) was 8.9 mg/kg. The ED50 ([3]; 2 h, conscious dogs, I.V. bolus, period 120-180 min (second hour after administration)) was 32.5 mg/kg, the ID50 ([3]; conscious dogs, I.V. bolus, period 60-120 min (first hour after administration), 60 min) was roughly 10 mg/kg and the “Inhibition of gastric acid secretion induced by pentagastrin in dogs (in words)” value ([3]; conscious dogs, first hour after bolus) was “potent inhibitors of gastric acid secretion induced by pentagastrin in dogs”. For the same molecule, the “Anti-CCK activity IC50” value [4] was 34.8 µg/mL, the “Effect on the fundic mucosa (in words)” value (fundic mucosa; mice) was “can inhibit both the aforementioned trophic effects of pentagastrin in a significant and dose-dependent manner” and the “Fundic DNA, Mean ± SD” value (fundic mucosa; [6]) was 0.268 ± 0.03 mg. The “Weight of the mucosa fundica, Mean ± SD” value (fundic mucosa; [6]) was 23.85 ± 3.48 mg, the “Fundic DNA, Mean ± SD” value (fundic mucosa; [7]) was 0.252 ± 0.03 mg and the “Weight of the mucosa fundica, Mean ± SD” value (fundic mucosa; [7]) was 18.90 ± 2.54 mg. For the same molecule, the “Effect on colic tumour weight and DNA content (in words)” value ([5]; mice) was “can inhibit both the aforementioned trophic effects of pentagastrin in a significant and dose-dependent manner”, the “Tumorous DNA, Mean” value [5, 6] was 3.24 ± 0.42 mg and the “Weight of the colic tumor, Mean ± SD” value [5, 6] was 601.5 ± 91.7 mg. The “Tumorous DNA, Mean” value [5, 7] was 2.94 ± 0.31 mg and the “Weight of the colic tumor, Mean ± SD” value [5, 7] was 554 ± 61.7 mg.
